Reference: US11420956B2, “Ureas having Androgen Receptor degradation activity and uses thereof” (ACCUTAR BIOTECHNOLOGY INC., priority 2019, dated 2022)

The molecules below were run against T1, androgen receptor (AR) (Homo sapiens, UniProt P10275, T878A) (assay: AR degradation in LNCAP cells (Western blot)). Conditions: 24 hours after administration.
T1 construct: endogenous in cells; host or cells: LNCAP
T1 sequence (P10275 1-920 T878A): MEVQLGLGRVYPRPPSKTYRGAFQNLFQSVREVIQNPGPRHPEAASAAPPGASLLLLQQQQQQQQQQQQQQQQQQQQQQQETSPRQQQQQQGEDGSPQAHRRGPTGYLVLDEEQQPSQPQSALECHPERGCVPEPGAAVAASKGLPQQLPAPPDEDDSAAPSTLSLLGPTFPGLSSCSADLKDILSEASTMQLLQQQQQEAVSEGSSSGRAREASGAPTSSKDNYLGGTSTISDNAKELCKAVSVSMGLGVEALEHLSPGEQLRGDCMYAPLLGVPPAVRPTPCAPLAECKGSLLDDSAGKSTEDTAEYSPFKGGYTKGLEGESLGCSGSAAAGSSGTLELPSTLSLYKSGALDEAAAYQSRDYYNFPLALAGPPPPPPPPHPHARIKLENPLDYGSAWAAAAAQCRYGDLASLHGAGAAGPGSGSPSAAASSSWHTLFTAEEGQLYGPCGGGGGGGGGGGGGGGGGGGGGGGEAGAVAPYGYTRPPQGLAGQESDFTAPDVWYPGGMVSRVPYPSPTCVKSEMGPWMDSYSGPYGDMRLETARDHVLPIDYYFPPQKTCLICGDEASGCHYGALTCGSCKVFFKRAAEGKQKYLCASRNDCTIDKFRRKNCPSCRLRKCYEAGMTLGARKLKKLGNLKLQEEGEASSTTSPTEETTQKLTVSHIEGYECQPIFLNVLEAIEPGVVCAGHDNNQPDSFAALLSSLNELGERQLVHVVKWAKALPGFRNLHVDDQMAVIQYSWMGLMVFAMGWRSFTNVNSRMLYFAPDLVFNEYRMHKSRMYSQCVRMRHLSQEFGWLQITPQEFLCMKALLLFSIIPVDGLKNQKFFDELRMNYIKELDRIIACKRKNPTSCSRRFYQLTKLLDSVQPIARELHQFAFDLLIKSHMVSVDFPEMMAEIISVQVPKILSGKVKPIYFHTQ
Assay type: cell-based
Method: LNCAP, VCAP and 22Rv1 cells were plated in 24-well plates at 1.5×10E5 cells/well in the RPMI growth medium containing 10% FBS and 1% Penicillin Streptomycin, and then incubated at 37° C. overnight. The following day, the test compound was administered to the cells by using 1000× compound stock solution prepared in DMSO at various concentrations. After administration of the compound, the cells were then incubated at 37° C. for 24 hours. Upon completion, the cells were washed with PBS and protein was collected in Laemmli sample buffer (1×; VWR International). Proteins in cell lysate were separated by SDS-PAGE and transferred to Odyssey nitrocellulose membranes (Licor) with iblot® dry blotting transfer system (ThermoFisher). Nonspecific binding was blocked by incubating membranes with Intercept Blocking Buffer (Licor) for 1 hour at room temperature with gentle shaking. The membranes were then incubated overnight at 4° C. with Primary antibodies rabbit anti-AR (1:1,000, Cell Signaling, 5153) and mouse anti-GAPDH (1:5,000, Santa Cruz Biotechnology, sc-47724) diluted in Intercept Blocking Buffer containing 0.1% Tween 20. After washing 3 times with TBS-T, the membranes were incubated with IRDye® […] goat anti-mouse IgG (1:20,000, Licor) or IRDye® […] goat anti-rabbit IgG (1:20,000, Licor) for 1 hour. After TBS-T washes, membranes were rinsed in TBS and scanned on Odyssey® CLx Imaging System (Licor). The bands were quantified using Image Studio™ Software (Licor).
Tables 5 and 6 summarize the androgen receptor (AR) degradative activity of exemplary compounds in LNCAP, VCAP and 22Rv1 cell lines 24 hours after administration. DC50: compound concentration needed for 50% target protein degradation.
`CC(C)N(CC1CCN(c2ccc(NC(=O)N3C[C@H](C)N(c4ccc(C#N)c(Cl)c4)C[C@H]3C)cn2)CC1)C1CC(Oc2ccc3c(c2)C(=O)N(C2CCC(=O)NC2=O)C3=O)C1` (stereo partly drawn) [Compound 1-12, (2R,5S)-4-(3-chloro-4-cyanophenyl)-N-(6-(4-((((1s,3s)-3-((2-(2,6-dioxopiperidin-3-yl)-1,3-dioxoisoindolin-5-yl)oxy)cyclobutyl)(isopropyl)amino)methyl)piperidin-1-yl)pyridin-3-yl)-2,5-dimethylpiperazine-1-carboxamide] was tested, and the DC50 was 10 to 100 nM. Molecule `C[C@@H]1CN(c2ccc(C#N)c3ncccc23)[C@@H](C)CN1C(=O)Nc1cc(F)c(N2CCC(CN3CCN(c4ccc5c(c4)CN([C@H]4CCC(=O)NC4=O)C5=O)CC3)CC2)cc1F` [Compound 2-18, (2R,5S)-4-(8-cyanoquinolin-5-yl)-N-(4-(4-((4-(2-((S)-2,6-dioxopiperidin-3-yl)-1-oxoisoindolin-5-yl)piperazin-1-yl)methyl)piperidin-1-yl)-2,5-difluorophenyl)-2,5-dimethylpiperazine-1-carboxamide] has a DC50 of over 100 nM. In the case of `COc1cc(N2C[C@@H](C)N(C(=O)Nc3ccc(N4CCC(CN5CCN(c6ccc7c(c6)C(=O)N(C6CCC(=O)NC6=O)C7=O)CC5)CC4)cc3F)C[C@@H]2C)ccc1C#N` (stereo partly drawn) [Compound 1-25, (2R,5S)-4-(4-cyano-3-methoxyphenyl)-N-(4-(4-((4-(2-(2,6-dioxopiperidin-3-yl)-1,3-dioxoisoindolin-5-yl)piperazin-1-yl)methyl)piperidin-1-yl)-2-fluorophenyl)-2,5-dimethylpiperazine-1-carboxamide], the DC50 is reported as at most 10 nM. In the case of `C[C@@H]1CN(c2ccc(C#N)c(Cl)c2)[C@@H](C)CN1C(=O)Nc1ccc(N2CCC(CN3CCN(c4ccc5c(c4)CN([C@H]4CCC(=O)NC4=O)C5=O)CC3)CC2)nc1` [Compound 1-44, (2R,5S)-4-(3-chloro-4-cyanophenyl)-N-(6-(4-((4-(2-((S)-2,6-dioxopiperidin-3-yl)-1-oxoisoindolin-5-yl)piperazin-1-yl)methyl)piperidin-1-yl)pyridin-3-yl)-2,5-dimethylpiperazine-1-carboxamide], the DC50 is reported as at most 10 nM. `C[C@@H]1CN(c2ccc(C#N)c3ncccc23)[C@@H](C)CN1C(=O)Nc1cnc(N2CCC(CN3CCN(c4cc5c(cc4F)C(=O)N(C4CCC(=O)NC4=O)C5=O)CC3)CC2)nc1` (stereo partly drawn) [Compound 2-23, (2R,5S)-4-(8-cyanoquinolin-5-yl)-N-(2-(4-((4-(2-(2,6-dioxopiperidin-3-yl)-6-fluoro-1,3-dioxoisoindolin-5-yl)piperazin-1-yl)methyl)piperidin-1-yl)pyrimidin-5-yl)-2,5-dimethylpiperazine-1-carboxamide] gave a DC50 of over 100 nM. In the case of `COc1cc(N2C[C@@H](C)N(C(=O)Nc3ccc(N4CCC(CN5CCN(c6cc7c(cc6F)C(=O)N([C@H]6CCC(=O)NC6=O)C7)CC5)CC4)c(F)c3)C[C@@H]2C)ccc1C#N` [Compound 1-55, (2R,5S)-4-(4-cyano-3-methoxyphenyl)-N-(4-(4-((4-(2-((S)-2,6-dioxopiperidin-3-yl)-6-fluoro-1-oxoisoindolin-5-yl)piperazin-1-yl)methyl)piperidin-1-yl)-3-fluorophenyl)-2,5-dimethylpiperazine-1-carboxamide], the DC50 is reported as at most 10 nM. Molecule `COc1cc(N2C[C@@H](C)N(C(=O)Nc3ccc(N4CCC(CN5CCN(c6cc7c(cc6F)C(=O)N(C6CCC(=O)NC6=O)C7=O)CC5)CC4)nc3)C[C@@H]2C)ccc1C#N` (stereo partly drawn) [Compound 1-39, (2R,5S)-4-(4-cyano-3-methoxyphenyl)-N-(6-(4-((4-(2-(2,6-dioxopiperidin-3-yl)-6-fluoro-1,3-dioxoisoindolin-5-yl)piperazin-1-yl)methyl)piperidin-1-yl)pyridin-3-yl)-2,5-dimethylpiperazine-1-carboxamide] has a DC50 of at most 10 nM. `C[C@@H]1CN(c2ccc(C#N)c(Cl)c2)[C@@H](C)CN1C(=O)Nc1ccc(N2CCC(CN(C)C3CC(Oc4ccc5c(c4)C(=O)N(C4CCC(=O)NC4=O)C5=O)C3)CC2)nc1` (stereo partly drawn) [Compound 1-9, (2R,5S)-4-(3-chloro-4-cyanophenyl)-N-(6-(4-((((1r,3r)-3-((2-(2,6-dioxopiperidin-3-yl)-1,3-dioxoisoindolin-5-yl)oxy)cyclobutyl)(methyl)amino)methyl)piperidin-1-yl)pyridin-3-yl)-2,5-dimethylpiperazine-1-carboxamide] was tested, and the DC50 was at most 10 nM. `C[C@@H]1CN(c2ccc(C#N)c(Cl)c2)[C@@H](C)CN1C(=O)Nc1cnc(N2CCC(CN3CCN(c4cc5c(cc4F)C(=O)N(C4CCC(=O)NC4=O)C5=O)CC3)CC2)nc1` (stereo partly drawn) [Compound 1-41, (2R,5S)-4-(3-chloro-4-cyanophenyl)-N-(2-(4-((4-(2-(2,6-dioxopiperidin-3-yl)-6-fluoro-1,3-dioxoisoindolin-5-yl)piperazin-1-yl)methyl)piperidin-1-yl)pyrimidin-5-yl)-2,5-dimethylpiperazine-1-carboxamide] was tested, and the DC50 was at most 10 nM. For `COc1cc(N2C[C@@H](C)N(C(=O)Nc3cnc(N4CCC(CN5CCN(c6ccc7c(c6)CN([C@H]6CCC(=O)NC6=O)C7=O)CC5)CC4)nc3)C[C@@H]2C)ccc1C#N` [Compound 1-52, (2R,5S)-4-(4-cyano-3-methoxyphenyl)-N-(2-(4-((4-(2-((S)-2,6-dioxopiperidin-3-yl)-1-oxoisoindolin-5-yl)piperazin-1-yl)methyl)piperidin-1-yl)pyrimidin-5-yl)-2,5-dimethylpiperazine-1-carboxamide], the DC50 was at most 10 nM. Molecule `C[C@@H]1CN(c2ccc(C#N)c(Cl)c2)[C@@H](C)CN1C(=O)Nc1ccc(OCCCCN(C)C2CC(Oc3ccc4c(c3)C(=O)N(C3CCC(=O)NC3=O)C4=O)C2)nc1` (stereo partly drawn) [Compound 1-8, (2R,5S)-4-(3-chloro-4-cyanophenyl)-N-(6-(4-(((1r,3r)-3-((2-(2,6-dioxopiperidin-3-yl)-1,3-dioxoisoindolin-5-yl)oxy)cyclobutyl)(methyl)amino)butoxy)pyridin-3-yl)-2,5-dimethylpiperazine-1-carboxamide] has a DC50 of at most 10 nM. For `C[C@@H]1CN(c2ccc(C#N)c3ncccc23)[C@@H](C)CN1C(=O)Nc1cnc(N2CCC(CN3CCN(c4ccc5c(c4)CN([C@H]4CCC(=O)NC4=O)C5=O)CC3)CC2)nc1` [Compound 2-10, (2R,5S)-4-(8-cyanoquinolin-5-yl)-N-(2-(4-((4-(2-((S)-2,6-dioxopiperidin-3-yl)-1-oxoisoindolin-5-yl)piperazin-1-yl)methy)piperidin-1-yl)pyrimidin-5-yl)-2,5-dimethylpiperazine-1-carboxamide], the DC50 was over 100 nM. `CC(C)N(CC1CCN(c2ccc(NC(=O)N3C[C@H](C)N(c4ccc(C#N)c5ncccc45)C[C@H]3C)cn2)CC1)C1CC(Oc2ccc3c(c2)C(=O)N(C2CCC(=O)NC2=O)C3=O)C1` (stereo partly drawn) [Compound 2-13, (2R,5S)-4-(8-cyanoquinolin-5-yl)-N-(6-(4-((((1r,3r)-3-((2-(2,6-dioxopiperidin-3-yl)-1,3-dioxoisoindolin-5-yl)oxy)cyclobutyl)(isopropyl)amino)methyl)piperidin-1-yl)pyridin-3-yl)-2,5-dimethylpiperazine-1-carboxamide] was tested, and the DC50 was over 100 nM. In the case of `C[C@@H]1CN(c2ccc(C#N)c(Cl)c2)[C@@H](C)CN1C(=O)Nc1ccc(N2CCC(CN3CCN(c4ccc5c(c4)C(=O)N(C4CCC(=O)NC4=O)C5=O)CC3)CC2)nc1` (stereo partly drawn) [Compound 1-13, (2R,5S)-4-(3-chloro-4-cyanophenyl)-N-(6-(4-((4-(2-(2,6-dioxopiperidin-3-yl)-1,3-dioxoisoindolin-5-yl)piperazin-1-yl)methyl)piperidin-1-yl)pyridin-3-yl)-2,5-dimethylpiperazine-1-carboxamide], the DC50 is reported as at most 10 nM.
